Data: patent US5098613A, “Anti-inflammatory agents” (Eli Lilly and Company, priority 1990, dated 1992)

Legend:
[1] = test system: inflammation created by injecting carrageenin into the hind paws of rats; assay: Carrageenin Assay; assay type: in vivo; settings: Rattus norvegicus, ip, 50 mg/kg i.p., prior to carrageenin injection, read-out: Percent Inhibition (Antiinflammatory Activity in the Carrageenin Assay)
Procedure: The compounds were evaluated for antiinflammatory activity in the test method described by C. A. Winter, Proc. Soc. Exp. Biol. Med., 111, 544 (1962). In this test, inflammation is created by injecting carrageenin into the hind paws of rats. Test compounds are administered prior to injection to determine percent inhibition of the subsequent inflammation in comparison with control animals.

[2] = target: T1, leukotriene B4 specific receptor on the membrane of human neutrophils (Homo sapiens, UniProt Q15722); assay: Inhibition of Binding of ^3 H-LTB4 to Peripheral Human Neutrophils; settings: 4° C., 10 minutes; for inhibition at 10 µM: drug concentration 10^-5 M, read-out: LTB4 Binding Inhibition; for inhibition at 1 µM: drug concentration 10^-6 M; for inhibition at 0.1 µM: drug concentration 10^-7 M
T1 construct: incubating neutrophils (1×10^7 cells) with 0.1-0.2 nM ^3 H-LTB4; endogenous in cells; host or cells: human peripheral blood neutrophils (buffy coats of two blood donors)
T1 sequence (Q15722 whole entry): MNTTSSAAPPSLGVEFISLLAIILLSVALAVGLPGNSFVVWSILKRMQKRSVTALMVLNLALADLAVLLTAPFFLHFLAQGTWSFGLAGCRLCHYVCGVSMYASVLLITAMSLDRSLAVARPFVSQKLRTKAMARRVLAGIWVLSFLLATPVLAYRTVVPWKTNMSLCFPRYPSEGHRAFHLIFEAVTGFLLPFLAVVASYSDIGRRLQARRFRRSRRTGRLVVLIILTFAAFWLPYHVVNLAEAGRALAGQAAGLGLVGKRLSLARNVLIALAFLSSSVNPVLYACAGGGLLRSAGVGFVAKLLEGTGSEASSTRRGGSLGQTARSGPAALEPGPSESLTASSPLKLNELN
How it was run: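 Freshly isolated human donor neutrophils (1×10^7 cells) in HBSS/0.1% ovalbumin pH 7.3 were incubated with 0.1-0.2 nM ^3H-LTB4 and compound at 1×10^-5 or 1×10^-6 M for 10 min at 4 °C. Bound ligand was separated by centrifugation through phthalate oil and counted, then corrected for nonspecific binding and compared with compound-free control.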

[3] = test system: IL-1 induced T-cell Proliferation; assay: Anti IL-1 Activity (Thymocyte Assay): suppression of IL-1 induced T-cell proliferation; assay type: cell-based, C3H/HeJ male mice; settings: mouse thymocytes, 48 hours, read-out: Percent T-cell suppression; for inhibition at 1 µg/mL: 1 mcg/ml; for inhibition at 10 µg/mL: 10 mcg/ml
Procedure: Thymus from 3-4 week old C3H/HeJ male mice and were passed through a #100 mesh screen to make a single cell suspension. The cells were suspended in RPMI-1640 supplemented with 2×10^-5 M 2-mercaptoethanol, 3% fetal calf serum, and 1% Penicillin/Streptomycin. The cell suspension was placed in a tissue culture flask and incubated at 37° C. in 5% carbon dioxide in air for 1-2 hours. The thymocytes were decanted, leaving adherent cells behind, and the liquid was centrifuged at 1400 rpm for 10 minutes. After decanting the supernatant, the cells were resuspended and counted with a hemocytometer. The density was adjusted to […]. Fifty μ1 of the suspension were added to each well of a 96-well microtiter plate, followed by the addition of 25 μl of PHA and 25 μl IL-1 (1:25 dilution of a 10 mcg/ml stock solution) per well.
Each compound to be tested was dissolved in 30% DMSO/70% PBS to make a stock solution of 1 mg/ml. Fifteen μl of each compound were added to 300 μl of media in the serial dilution plate. Twenty-five μl of each drug were added to the test plate in quadruplicate wells across the plate. The plate was incubated at 37° C. in 5% carbon dioxide in air for 48 hours. The wells were pulsed with tritiated thymidine (5 μCi.well) for 4 hours before harvesting on a Skatron cell harvester. The filter discs were placed in mini-vials, scintillation fluid (Tol-Pop) was added, and the vials counted. The percent of counts for each vial compared with control samples wherein no compound was added (vehicles only) was determined for each compound and are reported as Table III below as the percent T-ce1 suppression.

[4] = test system: Arachidonic Acid Induced Ear Edema; assay: Arachidonic Acid-Induced Ear Edema Assay; assay type: in vivo, Female BALB/C mice; settings: Mus musculus, 1 h, topical, one hour prior to arachidonic acid, read-out: Percent Inhibition of Ear Swelling; for inhibition in vivo at 0.05 %: 0.05% in ethanol gel; for inhibition in vivo at 1 %: 1% in ethanol gel
Procedure: Female BALB/C mice (Charles River; 18-20 rams) were divided into groups of five. Arachidonic acid was dissolved in ethanol at a concentration of 200 mg/ml. Each mouse received 2 mg/ear of arachidonic acid on the inner surface of the right ear. This dose of phlogistic was applied by an automatic pipette in 10 mcl volumes. The left ear (control) received ethanol. Drugs were applied topically in an ethanol-based gel to the entire outer surface of both ears one hour prior to arachidonic acid application. Edema was measured by the increase in ear weight. An hour after arachidonic acid solution or vehicle was applied, an ear sample of 7 mm in diameter was obtained from both ears. Ear edema was calculated by subtracting the […], dividing by the weight of the left/Control ear, and averaging the results for each group of mice according to compound and concentration.

[5] = test system: shock after E. coli LPS and galactosamine (GALN) challenge; assay: Mouse Endotoxin Shock Assay; assay type: in vivo, C57BL/6 male mice; settings: LPS/GALN s.c. challenge, results 48 hours after challenge, Reed Muench Method
Procedure: Compounds were given to 18-20 g C57BL/6 male mice using various regimens depending upon mode of administration. Control animals received corresponding vehicles only. The mice were then challenged with 0.2 ml of chromatographically purified 0111:B4 E. coli LPS and galactosamine hydrochloride (GALN) given subcutaneously (back of the neck). GALN was given at an approximate dose of 500 mg/kg whereas the LPS dose ranged between 0.3-1.2 μg/mouse (15-60 μg/k9). Control animals generally die of shock 7-15 hours after administration of LPS/GALN although a small number (0-5%) may die 24-48 hours after such administration. Calculation of the EDso for each compound was performed using the Reed Muench Method for results obtained 48 hours after challenge.

Structure (SMILES) | inhibition in vivo at 50 mg/kg [1] [%] | inhibition at 10 µM [2] [%] | inhibition at 1 µM [2] [%] | inhibition at 1 µg/mL [3] [%] | inhibition at 10 µg/mL [3] [%] | inhibition in vivo at 0.05 % [4] [%] | ED50 [5] [mg/kg] | inhibition at 0.1 µM [2] [%] | inhibition in vivo at 0.1 % ([4]; 0.1% in ethanol gel) [%] | inhibition in vivo at 1 % [4] [%] | inhibition in vivo at 0.01 % ([4]; 0.01% in ethanol gel) [%]
CCc1cc(C(C)=O)c(O)cc1OCCCCC#N [Example 19, 5-(4-Acetyl-2-ethyl-5-hydroxyphenoxy)-pentanenitrile] | 26 | 90 | 61 |  |  |  |  |  |  |  | 
CCc1cc(C(C)=O)c(O)cc1OCCCCCCC#N [Example 20, 7-(4-Acetyl-2-ethyl-5-hydroxyphenoxy)-heptanenitrile] | 19 | 102 | 72 | 39 | 99 |  |  |  |  |  | 
C=CCc1cc(C(C)=O)c(O)cc1OCc1ccccc1 [Example 47, 2-Hydroxy-4-benzyloxy-5-allylacetophenone] | 53 to 65 | 32 | 5 |  |  | 52 | 24 |  |  |  | 
C=CCc1cc(C(C)=O)c(O)cc1OCc1ccc(C#N)cc1 [Example 48, 4[(4-Acetyl-5-hydroxy-2-allylphenoxy)-methyl]benzonitrile] | 30 | 22 | 28 |  |  | 13.6 | 18.6 |  |  |  | 
C=CCc1cc(C(C)=O)c(O)cc1OCc1ccccc1C#N [Example 49, 2-[(4-Acetyl-5-hydroxy-2-allylphenoxy)-methyl]benzonitrile] | 43 | 47 | 15 |  |  | 31 | > 50 |  |  |  | 
C=CCc1cc(C(C)=O)c(O)cc1OCc1cccc(C#N)c1 [Example 50] | 50 to 82 | 67 | 66 |  |  | 29 to 47 | 9.5 | 25 |  |  | 
C=CCc1cc(C(C)=O)c(O)cc1OCc1cccc(C)c1 [Example 51, 2-Hydroxy-4-(3-methylbenzyloxy)-5-allyl-acetophenone] | 79 | 24 | 32 |  |  | 43 | 27 |  | 31 |  | 
CCCc1cc(C(C)=O)c(O)cc1OCCCc1ccccc1 [Example 53, 2-Hydroxy-4-(3-phenylpropoxy)-5-propyl-acetophenone] | 50 to 60 | 5 | 13 |  |  | 24 |  |  |  |  | 
CCc1cc(C(C)=O)c(O)cc1OCc1cccc(F)c1 [Example 54, 5-Ethyl-4-(3-fluorobenzyloxy)-2-hydroxy-acetophenone] |  | 42 | 32 |  |  |  | 21 |  |  |  | 
CCc1cc(C(C)=O)c(O)cc1OCc1cccc(C#N)c1 [Example 55] | 70 | 60 | 71 |  |  | 43 to 59 | 3.1 | 25 |  | 57 | 
CCc1cc(C(C)=O)c(O)cc1OCc1cccc(Cl)c1 [Example 56, 4-(3-Chlorobenzyloxy)-5-ethyl-2-hydroxyacetophenone] |  | 42 | 15 |  |  | 6 |  |  |  |  | 
CCc1cc(C(C)=O)c(O)cc1OCc1cccc(SC)c1 [Example 59, 4-(3-Methylmercaptobenzyloxy)-5-ethyl-2-hydroxyacetophenone] |  | 58 | 23 |  |  | 0 |  |  |  |  | 
C=CCc1cc(C(C)=O)c(O)cc1OCCCCCCSC [Example 78, 2-Hydroxy-4-[6-(methylthio)hexyloxy]-5-allylaoetophenone] |  | 78 | 38 |  |  |  |  |  |  | 46 | 
CCc1cc(C(C)=O)c(O)cc1OCCCCCC(C)(C)C(=O)O [Example 87, 7-(4-Acetyl-2-ethyl-5-hydroxyphenoxy)-2,2-dimethylheptanoic acid] | 15 | 104 | 73 |  |  |  |  | 20 |  | 3 | 
CCc1cc(C(C)=O)c(O)cc1OCc1cccc(C(=O)OC)c1 [Example 93] |  | 64 | 22 |  |  |  | 25 |  |  |  | 
CCc1cc(C(C)=O)c(O)cc1OCCCCCCC(=O)N(C)C [Example 98, 7-(4-Acetyl-2-ethyl-5-hydroxyphenoxy)-N,N-dimethylheptanamide] |  | 100 | 61 | 14 | 85 |  |  |  |  | 17 | 
C=CCc1cc(C(C)=O)c(O)cc1OCCCCCC(=O)NO [Example 100, 6-(4-Acetyl-5-hydroxy-2-allylphenoxy)-droxyhexanamide] | 38 | 84 | 28 |  |  |  |  |  |  | 18 | 
CCc1cc(C(C)=O)c(O)cc1OCCCCc1nn[nH]n1 [Example 110, 5-Ethyl-2-hydroxy-4-[4-(lH-tetrazol-5-y)butoxy]acetophenone] | 64 | 49 | 19 |  |  |  |  |  |  | 58 | 
CCc1cc(C(C)=O)c(OC)cc1OCc1cccc(C#N)c1 [Example 114] |  | 52 | 8 |  |  | 40 |  |  |  |  | 44
C=CCc1cc(C(C)=O)c(O)cc1OCc1cccc(-c2nnn(C)n2)c1 [Example 121] |  | 27 to 38 | 34 to 38 |  |  | 0 |  |  |  |  | 
CCc1cc(C(C)=O)c(O)cc1OCCCCc1nnn(C)n1 [Example 123, 2-Hydroxy-4-[4-(2-methyl-2H-tetrazol-5-yl)butoxy]-5-ethylacetophenone] | 55 | 98 | 60 | 36 | 90 |  |  |  |  | 58 | 
CCc1cc(C(C)=O)c(O)cc1OCCCC(C)(C)c1nnn[nH]1 [Example 136, 1-(5-Ethyl-2-hydroxy-4-{[4-methyl-4-(1H-tetrazol-5-yl)pentyl]oxy}phenyl)ethanone] | 41 | 100 | 77 |  |  |  |  |  |  |  | 
CCc1cc(C(C)=O)c(O)cc1OCCCCCCc1nnn[nH]1 [Example 140, 1-(5-Ethyl-2-hydroxy-4-{[6-(1H-tetrazol-5-yl)-hexyl]oxy}phenyl)ethanone] | 31 | 94 | 59 |  |  |  |  |  |  |  | 
